Our source for the MHK values is patent publication US6479056B1, “Live vaccine constituting minor risk for humans” (priority 1994, dated 2002).

The test system of this assay is wild strains. Nature of the assay: MHK of antibiotics for wild strains. Type of assay: cell-based, Salmonella.
Turning to `CC[C@H]1OC(=O)[C@H](C)[C@@H](O[C@H]2C[C@@](C)(OC)[C@@H](O)[C@H](C)O2)[C@H](C)[C@@H](O[C@@H]2O[C@H](C)C[C@H](N(C)C)[C@H]2O)[C@](C)(O)C[C@@H](C)C(=O)[C@H](C)[C@@H](O)[C@]1(C)O` [erythromycin], the MHK entry was “(Abbott) wild strains MHK 60.0 ug/ml”. As to `O=C(N[C@H](CO)[C@H](O)c1ccc([N+](=O)[O-])cc1)C(Cl)Cl` [chloramphenicol], the MHK result is on record as “(Berlin-Chemie) 2.0 ug/ml”. In the case of `CCn1cc(C(=O)O)c(=O)c2ccc(C)nc21` [nalidixic acid], the MHK entry is given as “(CHINOIN, Budapest) wild strains MHK 6.2 ug/ml”. As to `C[C@H]1c2cccc(O)c2C(=O)C2=C(O)[C@]3(O)C(=O)C(C(N)=O)=C(O)[C@@H](N(C)C)[C@@H]3[C@@H](O)[C@@H]21` [doxycycline], the MHK result was “(Jenapharm) wild strains MHK 4.0 ug/ml”. With `[H]/N=C(/N)N[C@H]1[C@H](O)[C@@H](O)[C@H](O[C@@H]2O[C@@H](C)[C@](O)(C=O)[C@H]2O[C@@H]2O[C@@H](CO)[C@H](O)[C@@H](O)[C@@H]2NC)[C@@H](N/C(N)=N\[H])[C@@H]1O` [streptomycin], the MHK entry was “(Jenapharm) wild strains MHK 6.2 ug/ml”. As to `O=C(O)c1cn(C2CC2)c2cc(N3CCNCC3)c(F)cc2c1=O` [ciprofloxacin], the MHK entry is “(Bayer) wild strains MHK 0.05 ug/ml”.
